Source: patent publication US9255090B2, “Heterocyclyl derivatives and their use as prostaglandin D2 receptor modulators” (Actelion Pharmaceuticals Ltd., priority 2012, dated 2016)

Target: hCRTH2 receptor (Homo sapiens (Human), UniProt Q9Y5Y4)
Assay: hCRTH2 receptor membranes radioligand (3H-PGD2) displacement assay
Assay type: binding
Conditions: 3H-PGD2 radioligand displacement, HEK293-hCRTH2 membranes
Procedure: Biological Assays: Preparation of hCRTH2 Receptor Membranes and Radioligand Displacement Assay:
First, recombinant HEK293-hCRTH2 cells were detached from culture plates into 5 ml buffer A/plate (Buffer A: 5 mM Tris, 1 mM MgCl2-6H2O pH=7.4) using a rubber policeman. Cells were then transferred into centrifugation tubes and centrifuged for 5 min at 400 g. The cell pellet was resuspended in the same buffer and tubes were frozen at −80° C. Cells were thawed and membrane fragments were generated by homogenization using a polytron homogenizer (30 seconds). The membrane fragments were then centrifuged at 3000 g for 20 minutes and resuspended in buffer C (Buffer C: 75 mM Tris, 25 mM MgCl2, 250 mM Saccharose pH 7.4). Aliquots of membrane fragments were stored at −20° C.
Binding assay was performed in a final assay volume of 250 μl. First, 25 μl of test compound, previously diluted in Binding-Buffer (Binding-Buffer: 50 mM Tris-Base, 100 mM NaCl, 1 mM EDTA, 0.1% BSA (protease free), 0.01% NaN3, 10 mM MnCl2, pH 7.0) was placed into each well. After addition of 75 μl Binding-Buffer, 50 μl of the radioligand ^3H-PGD2 (at 2.5 nM (220.000 dpm/well) from ANAWA ART0662) was added to each well. Binding assay was started by addition of 100 μl CRTH2 membrane fragments, reaching a final concentration of 20 μg/well. For non-specific binding, PGD2 was added to the reaction mixture to […] final concentration. This assay mix was incubated for 90 minutes at room temperature and then filtered through a GF/C filter 96-well plate which was pre-soaked for 3 hours in 0.5% polyethyleneimine (PEI). The filter-wells were washed three times with ice cold Binding-Buffer. Then, 40 μl of Microscint-40 (Packard) was added to each well and the retained radioactivity quantified in a Topcount (Packard).

Sequence of hCRTH2 receptor (Q9Y5Y4 whole entry): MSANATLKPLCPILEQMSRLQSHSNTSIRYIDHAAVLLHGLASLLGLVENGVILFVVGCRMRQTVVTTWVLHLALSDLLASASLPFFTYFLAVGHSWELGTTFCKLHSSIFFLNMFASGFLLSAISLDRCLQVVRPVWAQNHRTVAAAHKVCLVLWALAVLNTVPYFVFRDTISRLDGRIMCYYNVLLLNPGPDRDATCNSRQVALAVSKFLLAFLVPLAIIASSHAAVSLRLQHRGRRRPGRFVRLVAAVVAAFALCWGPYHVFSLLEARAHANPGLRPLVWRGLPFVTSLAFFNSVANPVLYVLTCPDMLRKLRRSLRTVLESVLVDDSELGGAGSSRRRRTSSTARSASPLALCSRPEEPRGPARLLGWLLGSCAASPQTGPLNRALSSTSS

IC50 [nM] | Compound
3.5 | O=C(O)Cc1ccc(-c2ccc(F)c3c2CN(C(=O)CC2CCOc4ccccc42)CC3)c(OCC(F)(F)F)c1 (racemic) [Example 285]
10 | CC(CC(=O)N1CCc2c(F)ccc(-c3ccc(CC(=O)O)cc3OCC(F)(F)F)c2C1)c1ccccn1 (racemic) [Example 288]
5 | CC(C)Oc1ccc(CC(=O)O)cc1-c1ccc(F)c2c1CN(C(=O)CC1CCOc3ccccc31)CC2 (racemic) [Example 290]
1.6 | CC(C)Oc1ccc(CC(=O)O)cc1-c1ccc(F)c2c1CN(C(=O)CC(C)c1ccccn1)CC2 (racemic) [Example 293]
3.2 | Cc1cccc(C(C)CC(=O)N2CCc3c(F)ccc(-c4cc(CC(=O)O)ccc4OC(C)C)c3C2)n1 (racemic) [Example 294]
1.9 | CC(C)Oc1ccc(CC(=O)O)cc1-c1ccc(F)c2c1CN(C(=O)CC1OCCc3ccccc31)CC2 (racemic) [Example 297]
1.2 | CC(C)Oc1ccc(CC(=O)O)cc1-c1ccc(F)c2c1CN(C(=O)CC1COc3ccccc31)CC2 (racemic) [Example 298]
14.8 | O=C(O)Cc1ccc(OCC(F)(F)F)c(-c2ccc(F)c3c2CN(C(=O)CC2CCOc4ccccc42)CC3)c1 (racemic) [Example 299]
8.1 | CC(CC(=O)N1CCc2c(F)ccc(-c3cc(CC(=O)O)ccc3OCC(F)(F)F)c2C1)c1ccccn1 (racemic) [Example 302]
3.4 | O=C(O)Cc1ccc(OCC(F)(F)F)c(-c2ccc(F)c3c2CN(C(=O)CC2COCc4ccccc42)CC3)c1 (racemic) [Example 305]
7.4 | O=C(O)Cc1ccc(OCC(F)(F)F)c(-c2ccc(F)c3c2CN(C(=O)CC2OCCc4ccccc42)CC3)c1 (racemic) [Example 306]
3.4 | O=C(O)Cc1ccc(OCC(F)(F)F)c(-c2ccc(F)c3c2CN(C(=O)CC2COc4ccccc42)CC3)c1 (racemic) [Example 307]
13.1 | CCOc1ccc(CC(=O)O)cc1-c1ccc(F)c2c1CN(C(=O)CC(CC)c1ccccn1)CC2 (racemic) [Example 308]
7.8 | CCOc1cc(CC(=O)O)ccc1-c1ccc(F)c2c1CN(C(=O)CC(CC)c1ccccn1)CC2 (racemic) [Example 313]
114 | CCOc1ccc(CC(=O)O)cc1-c1ccc(F)c2c1CN(C(=O)CC(c1ccccn1)C1CC1)CC2 (racemic) [Example 318]
11.7 | CCOc1cc(CC(=O)O)ccc1-c1ccc(F)c2c1CN(C(=O)CC(C)c1cccc(C)n1)CC2 (racemic) [Example 320]
1.8 | CCOc1cc(CC(=O)O)ccc1-c1ccc(F)c2c1CN(C(=O)CC1CC(C)(C)Oc3ccccc31)CC2 (racemic) [Example 323]
0.9 | CCOc1cc(CC(=O)O)ccc1-c1ccc(F)c2c1CN(C(=O)CC1COc3ccccc3C1)CC2 (racemic) [Example 324]
1.8 | CCOc1cc(CC(=O)O)ccc1-c1ccc(F)c2c1CN(C(=O)C1CCc3cccc(OC)c3C1)CC2 (racemic) [Example 325]
2 | CCOc1cc(CC(=O)O)ccc1-c1ccc(F)c2c1CN(C(=O)CC1(C)CCCc3ccccc31)CC2 (racemic) [Example 326]
0.2 | CCOc1cc(CC(=O)O)ccc1-c1ccc(F)c2c1CN(C(=O)CC1CCOc3cc(F)ccc31)CC2 (racemic) [Example 327]
22.7 | CCOc1ccc(CC(=O)O)cc1-c1ccc(F)c2c1CN(C(=O)C1CCc3cccc(OC)c3C1)CC2 (racemic) [Example 333]
291 | COc1ccc(CC(=O)O)cc1-c1ccc(F)c2c1CN(C(=O)C(C)Cc1cccnc1)CC2 (racemic) [Example 343]

IC50 [nM] | Compound
3.7 | CC(C)Oc1cc(CC(=O)O)ccc1-c1ccc(F)c2c1CN(C(=O)CC(C)c1ccccn1)CC2 (racemic) [Example 346]
1.2 | CC(C)Oc1cc(CC(=O)O)ccc1-c1ccc(F)c2c1CN(C(=O)CC1CCOc3ccccc31)CC2 (racemic) [Example 353]
22.9 | COc1ccc(CC(=O)O)cc1-c1ccc(F)c2c1CN(C(=O)CC1OCc3ccccc31)CC2 (racemic) [Example 362]
4.2 | CCOc1ccc(CC(=O)O)cc1-c1ccc(F)c2c1CN(C(=O)OCC(C)CC)CC2 (racemic) [Example 380]
430 | COc1ccc(OC(C)C(=O)O)cc1-c1ccc(F)c2c1CN(C(=O)OCc1ccccc1)CC2 (racemic) [Example 414]
337 | CCC(Oc1ccc(OC)c(-c2ccc(F)c3c2CN(C(=O)OCc2ccccc2)CC3)c1)C(=O)O (racemic) [Example 415]
11.3 | CCOc1cc(C(C)C(=O)O)ccc1-c1ccc(F)c2c1CN(C(=O)OCc1ccccc1)CC2 (racemic) [Example 425]
25.6 | Cc1ccc(CC(=O)O)cc1-c1ccc(F)c2c1CN(C(=O)OCc1ccccc1)CC2 [Example 7, 8-(5-Carboxymethyl-2-methyl-phenyl)-5-fluoro-3,4-dihydro-1H-isoquinoline-2-carboxylic acid benzyl ester]
7.31 | O=C(O)Cc1ccc(C(F)(F)F)c(-c2ccc(F)c3c2CN(C(=O)OCc2ccccc2)CC3)c1 [Example 8, 8-(5-Carboxymethyl-2-trifluoromethyl-phenyl)-5-fluoro-3,4-dihydro-1H-isoquinoline-2-carboxylic acid benzyl ester]
12.8 | O=C(O)Cc1ccc(Cl)c(-c2ccc(F)c3c2CN(C(=O)OCc2ccccc2)CC3)c1 [Example 9, 8-(5-Carboxymethyl-2-chloro-phenyl)-5-fluoro-3,4-dihydro-1H-isoquinoline-2-carboxylic acid benzyl ester]
10.1 | O=C(O)Cc1ccc(F)c(-c2ccc(F)c3c2CN(C(=O)OCc2ccccc2)CC3)c1 [Example 10, 8-(5-Carboxymethyl-2-fluoro-phenyl)-5-fluoro-3,4-dihydro-1H-isoquinoline-2-carboxylic acid benzyl ester]
69.1 | O=C(O)Cc1cc(-c2ccc(F)c3c2CN(C(=O)OCc2ccccc2)CC3)ccc1Cl [Example 11, 8-(3-Carboxymethyl-4-chloro-phenyl)-5-fluoro-3,4-dihydro-1H-isoquinoline-2-carboxylic acid benzyl ester]
21.8 | O=C(O)Cc1cc(-c2ccc(F)c3c2CN(C(=O)OCc2ccccc2)CC3)ccc1F [Example 12, 8-(3-Carboxymethyl-4-fluoro-phenyl)-5-fluoro-3,4-dihydro-1H-isoquinoline-2-carboxylic acid benzyl ester]
72.3 | COc1ccc(-c2ccc(F)c3c2CN(C(=O)OCc2ccccc2)CC3)cc1CC(=O)O [Example 13, 8-(3-Carboxymethyl-4-methoxy-phenyl)-5-fluoro-3,4-dihydro-1H-isoquinoline-2-carboxylic acid benzyl ester]
14.8 | O=C(O)Cc1cc(F)cc(-c2ccc(F)c3c2CN(C(=O)OCc2ccccc2)CC3)c1 [Example 14, 8-(3-Carboxymethyl-5-fluoro-phenyl)-5-fluoro-3,4-dihydro-1H-isoquinoline-2-carboxylic acid benzyl ester]
18.5 | COc1cc(CC(=O)O)cc(-c2ccc(F)c3c2CN(C(=O)OCc2ccccc2)CC3)c1 [Example 15, 8-(3-Carboxymethyl-5-methoxy-phenyl)-5-fluoro-3,4-dihydro-1H-isoquinoline-2-carboxylic acid benzyl ester]
25.2 | O=C(O)Cc1cccc(-c2ccc(F)c3c2CN(C(=O)OCc2ccccc2)CC3)c1F [Example 16, 8-(3-Carboxymethyl-2-fluoro-phenyl)-5-fluoro-3,4-dihydro-1H-isoquinoline-2-carboxylic acid benzyl ester]
141 | COc1ccc(CC(=O)O)cc1-c1ccc(F)c2c1CCN(C(=O)OCc1ccccc1)CC2 [Example 17, 6-(5-Carboxymethyl-2-methoxy-phenyl)-9-fluoro-1,2,4,5-tetrahydro-benzo[d]azepine-3-carboxylic acid benzyl ester]
165 | COc1ccc(CC(=O)O)cc1-c1ccc(F)c2c1CN(C(=O)OCc1ccccc1)C2 [Example 18, 4-(5-Carboxymethyl-2-methoxy-phenyl)-7-fluoro-1,3-dihydro-isoindole-2-carboxylic acid benzyl ester]
20.2 | O=C(O)Cc1cc(Cl)cc(-c2ccc(F)c3c2CN(C(=O)OCc2ccccc2)CC3)c1 [Example 19, 8-(3-Carboxymethyl-5-chloro-phenyl)-5-fluoro-3,4-dihydro-1H-isoquinoline-2-carboxylic acid benzyl ester]
16.3 | CS(=O)(=O)c1ccc(CC(=O)O)cc1-c1ccc(F)c2c1CN(C(=O)OCc1ccccc1)CC2 [Example 20, 8-(5-Carboxymethyl-2-methanesulfonyl-phenyl)-5-fluoro-3,4-dihydro-1H-isoquinoline-2-carboxylic acid benzyl ester]
192 | O=C(O)Cc1ccc(F)c(-c2cccc3c2CN(C(=O)OCc2ccccc2)CC3)c1 [Example 23, 8-(5-Carboxymethyl-2-fluoro-phenyl)-3,4-dihydro-1H-isoquinoline-2-carboxylic acid benzyl ester]
